Experimental data published in a compilation of properties of binary mixtures (doi:10.1021/acs.jced.2c00294).

Test: xn = mol fraction of the nth substance listed
Conditions: 101 kPa

CCCC[N+]1(C)CCCC1.N#C[N-]C#N + CCCC[N+]1(C)CCCC1.O=S(=O)([N-]S(=O)(=O)C(F)(F)F)C(F)(F)F
x2 = 0.5
Conditions	electrical conductivity [S/m]	viscosity [mPa·s]
298 K	0.565	51.3
303 K	0.642	36.1
308 K	0.746	32
313 K	0.857	26.7
328 K	–	17.06

N#C[N-]S(=O)(=O)C(F)(F)F.[Li+] + CCCC[N+]1(CCCC1)C.[N-](C#N)S(=O)(=O)C(F)(F)F
Conditions	electrical conductivity, x1 = 0.05 [S/m]	electrical conductivity, x1 = 0.1 [S/m]	electrical conductivity, x1 = 0.2 [S/m]	viscosity, x1 = 0.05 [mPa·s]	viscosity, x1 = 0.1 [mPa·s]	viscosity, x1 = 0.2 [mPa·s]
298 K	0.314	0.227	0.08	73	107.9	379
303 K	0.372	–	0.101	62.2	–	312
308 K	0.442	0.334	0.127	50.5	73	243
313 K	0.523	0.401	0.156	42.4	60.7	191
318 K	0.611	0.513	–	35.8	50.6	–
323 K	–	–	0.234	–	–	121.8
328 K	–	–	–	23.6	–	99.9

CCCC[N+]1(C)CCCC1.N#C[N-]S(=O)(=O)C(F)(F)F + [Li+].[N-](C#N)S(=O)(=O)C(F)(F)F
x2 = 0
Conditions	electrical conductivity [S/m]	viscosity [mPa·s]
298 K	0.458	45.9
303 K	0.546	40.4
318 K	0.869	24.6
323 K	1	21.5
328 K	–	16.19
